One assay addresses T1, human A3 receptor (Homo sapiens, UniProt P0DMS8).
T1 sequence (P0DMS8 1-318): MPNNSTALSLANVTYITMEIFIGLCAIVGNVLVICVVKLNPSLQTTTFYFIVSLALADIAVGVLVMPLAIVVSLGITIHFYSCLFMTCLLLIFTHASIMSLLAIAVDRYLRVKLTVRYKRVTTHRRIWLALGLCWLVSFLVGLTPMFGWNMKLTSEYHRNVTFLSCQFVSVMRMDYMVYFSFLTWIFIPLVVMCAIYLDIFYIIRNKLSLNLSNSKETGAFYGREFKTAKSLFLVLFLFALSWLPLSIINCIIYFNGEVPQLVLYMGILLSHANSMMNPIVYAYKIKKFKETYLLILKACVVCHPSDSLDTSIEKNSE
Kind of assay: Functional cAMP assay in CHO-A3 cells. Format: cell-based. Conditions: for KB (antagonist mode; functional character at A3): inhibition of NECA (0.1 μM) effect on cAMP; for % Emax: maximal agonist effect; for EC50: read-out: EC50 (cAMP), agonist mode. Background: cAMP levels reflect the balance of adenylyl cyclase and phosphodiesterase activity.

The subject of assay [1] is human blood platelets. Briefly: ADP-induced platelet aggregation in platelet-rich plasma. Format: cell-based. Conditions: 10 μM ADP, mean ± SD, n = 6–9.
In assay [2] the target is T2, human A1 adenosine receptor (Homo sapiens, UniProt P30542).
T2 sequence (P30542 1-326): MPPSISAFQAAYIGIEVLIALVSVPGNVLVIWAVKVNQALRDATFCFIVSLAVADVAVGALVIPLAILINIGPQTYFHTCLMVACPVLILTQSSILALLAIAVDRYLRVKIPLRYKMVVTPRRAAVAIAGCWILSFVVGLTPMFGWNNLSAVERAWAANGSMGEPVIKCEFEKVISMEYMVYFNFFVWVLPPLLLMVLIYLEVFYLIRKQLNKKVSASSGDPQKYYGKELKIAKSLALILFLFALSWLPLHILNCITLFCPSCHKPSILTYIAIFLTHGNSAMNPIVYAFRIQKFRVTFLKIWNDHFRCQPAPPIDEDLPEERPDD
Conditions: 10 μM compound; USEF; CHO-A1 membranes; 1 nM [3H]-DPCPX.

For assay [3], the target named is T3, human A2A adenosine receptor (Homo sapiens, UniProt P29274). Conditions: for percent of inhibition, A2A AR: 10 μM compound, USEF, HeLa-A2A membranes, 3 nM [3H]-ZM241385; for radioligand displacement at A2A receptor: 50 μM compound, Fig. 1. On the technique in general: Loss of bound radioactivity is the signal in a displacement assay; it reports binding, not function.
T3 sequence (P29274 whole entry): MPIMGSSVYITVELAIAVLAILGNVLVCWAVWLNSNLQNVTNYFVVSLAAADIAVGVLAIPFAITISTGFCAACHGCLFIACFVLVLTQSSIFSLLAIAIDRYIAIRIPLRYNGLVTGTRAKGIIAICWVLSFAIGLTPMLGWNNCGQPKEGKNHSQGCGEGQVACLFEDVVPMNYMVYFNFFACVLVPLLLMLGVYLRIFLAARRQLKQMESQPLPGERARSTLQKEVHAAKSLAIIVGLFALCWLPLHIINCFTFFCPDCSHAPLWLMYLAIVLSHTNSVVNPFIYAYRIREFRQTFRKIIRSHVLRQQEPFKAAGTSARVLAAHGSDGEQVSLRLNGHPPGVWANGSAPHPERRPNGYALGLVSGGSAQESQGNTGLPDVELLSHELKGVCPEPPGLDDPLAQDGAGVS

Assay [4] concerns the target T4, human A2B adenosine receptor (Homo sapiens, UniProt P29275).
T4 sequence (P29275 1-332): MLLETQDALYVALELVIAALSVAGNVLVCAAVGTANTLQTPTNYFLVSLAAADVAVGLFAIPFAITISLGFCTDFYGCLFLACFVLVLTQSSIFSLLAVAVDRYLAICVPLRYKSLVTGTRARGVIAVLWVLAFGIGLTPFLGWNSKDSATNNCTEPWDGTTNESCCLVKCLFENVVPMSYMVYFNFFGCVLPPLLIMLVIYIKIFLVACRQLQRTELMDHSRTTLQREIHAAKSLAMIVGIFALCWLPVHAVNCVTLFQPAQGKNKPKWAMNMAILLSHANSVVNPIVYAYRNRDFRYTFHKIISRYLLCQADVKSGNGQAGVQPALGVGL
Conditions: USEF, HEK-A2B membranes, 25 nM [3H]-DPCPX; for percent of inhibition, A2B AR: 10 μM compound.

For assay [5], the target named is T5, human A3 adenosine receptor (Homo sapiens, UniProt P0DMS8).
T5 sequence (P0DMS8 1-318): T1 sequence (P0DMS8 1-318)
Conditions: for activity class (active / inactive) in selectivity analysis / receptor selectivity class: N6 carborane derivatives, USEF binding data; for Ki: read-out: Ki, A3 AR, USEF, HeLa-A3 membranes, 10 nM [3H]-NECA.

The test system of assay [6] is human blood platelets. Briefly: Formation of thrombus on collagen in flow conditions. Format: cell-based. Conditions: whole blood perfused over collagen; 50 μM compound; n = 9.
Assay [7] concerns human blood platelets. Briefly: Aggregation of blood platelets in whole blood. Conditions: for effect on ADP-induced platelet aggregation in whole blood: ADP, 10, 30, 50 μM compound, n = 13; for effect on arachidonic acid-induced platelet aggregation in whole blood: data not shown; for effect on collagen-induced platelet aggregation in whole blood: collagen 1 μg/mL.
Assay [8] has as its target T2, human A1 adenosine receptor. Briefly: biochemical.
Assay [9] has as its target T3, human A2A adenosine receptor. Briefly: biochemical.
A further assay deals with A3 receptor. Conditions: read-out: experimental Ki, A3 AR; ref PubChem CID 9958472; cited from earlier work.

Marks after values point to notes of the source that are not given here.

Usually EC50 stands for the concentration giving half of the maximal effect. What is called Ki is a measure of affinity in units of concentration, obtained from inhibition or displacement. A word on the IC50: it is the concentration needed to halve the response being measured. A low value points to inhibition by little substance.

As for “N^6-[(1,12-dicarba-closo-dodecaboran-1-yl)but-4-yl]adenosine [Compound 7]”, at human A3 receptor, the “KB (antagonist mode; functional character at A3)” value was “no antagonist”, the “% Emax” value was found to be 103% and the EC50 came to 271 nM. Also, in the assay with human blood platelets [1] (10 μM compound), the “area under the aggregation curve, ADP-induced platelet aggregation” value (from here on “area under the aggregation curve”) is listed as 686.5 ± 66.1 arbitrary units. In the assay on human blood platelets [1] (50 μM compound), the “area under the aggregation curve” value is listed as 642.8 ± 45.4 arbitrary units. For the same compound, in [2], the “percent of inhibition, A1 AR” value turned out to be 29 ± 1 %^a. In addition, the “percent of inhibition, A2A AR” value in assay [3] worked out at 2 ± 1 %^a. Also, the “percent of inhibition, A2B AR” value in assay [4] worked out at 1 ± 1 %^a. In [5], the “activity class (active / inactive) in selectivity analysis” value is recorded as “active”, the receptor selectivity class entry is “A3 AR selective” and the inhibitory constant (Ki) was 444 nM.

Take `OC[C@H]1O[C@@H](n2cnc3c(NCCCc4ccccc4)ncnc32)[C@H](O)[C@@H]1O` [Compound 40, N^6-(3-phenylpropyl)adenosine]: in the assay with human blood platelets [6], the “effect on thrombus formation on collagen under flow” value is “smaller than the thrombi in the untreated samples”. Also, the “radioligand displacement at A2A receptor” value in assay [3] is listed as “at least 50%”. In addition, in the assay on human blood platelets [7], the “effect on ADP-induced platelet aggregation in whole blood” value is “significantly decreased”, the “effect on arachidonic acid-induced platelet aggregation in whole blood” value was “did not inhibit” and the “effect on collagen-induced platelet aggregation in whole blood” value is given as “did not inhibit”.

For “N^6-[(1,12-dicarba-closo-dodecaboran-1-yl)but-4-yl]-5′-ethylcarbamoyl-adenosine [Compound 15]”, at human A3 receptor, the “KB (antagonist mode; functional character at A3)” value is “no antagonist”, the “% Emax” value worked out at 99% and the EC50 amounted to 1010 nM. For the same compound, in the assay with human blood platelets [1] (10 μM compound), the “area under the aggregation curve” value turned out to be 698.7 ± 74.4 arbitrary units. Also, in the assay with human blood platelets [1] (50 μM compound), the “area under the aggregation curve” value turned out to be 657.1 ± 70.7 arbitrary units. In addition, in assay [2], the “percent of inhibition, A1 AR” value is 40 ± 2 %^a. In assay [3], the “percent of inhibition, A2A AR” value stood at 9 ± 1 %^a. In assay [4], the “percent of inhibition, A2B AR” value was 7 ± 2 %^a. In [5], the “activity class (active / inactive) in selectivity analysis” value is on record as “active”, the receptor selectivity class result was “A3 AR selective” and the Ki was determined as 437 nM.

Consider `OC[C@H]1O[C@@H](n2cnc3c(NCCCc4ccccc4)nc(Cl)nc32)[C@H](O)[C@@H]1O` [Compound 24, 6-N-(3-phenylpropyl)-2-chloroadenosine], for which the “radioligand displacement at A2A receptor” value in assay [3] was “at least 50%”. For the same compound, in assay [8], the Ki is 3340 nM. The compound further returned a 50% inhibitory concentration (IC50) in assay [9] of 22000 ± 4400 nM.

On to “5′-ethylcarbamoyl-N^6-(3-phenylpropyl)adenosine [Compound 18]”, for which the entries for the “area under the aggregation curve” value in the assay with human blood platelets [1] (10 μM compound) and in the assay with human blood platelets [1] (50 μM compound) were 630.0 ± 80.3 arbitrary units and 336.8 ± 108.5 arbitrary units, respectively. Besides, the “effect on thrombus formation on collagen under flow” value in the assay on human blood platelets [6] was “did not exert an inhibitory effect”. Besides, the inhibition constant (Ki) in assay [4] (read-out: Ki, A2B AR) was 1380 nM; in assay [5], 4.5 nM. The “effect on ADP-induced platelet aggregation in whole blood” value in the assay on human blood platelets [7] is reported as “significantly inhibited”. In addition, the “effect on arachidonic acid-induced platelet aggregation in whole blood” value with human blood platelets [7] is on record as “no effect”. The “effect on collagen-induced platelet aggregation in whole blood” value in the assay on human blood platelets [7] was “significantly inhibited”.

Take `CNC(=O)[C@H]1O[C@@H](n2cnc3c(NCc4ccc(N)c(I)c4)ncnc32)[C@H](O)[C@@H]1O` [I-AB-MECA]: the inhibition constant Ki at A3 receptor is 1.2 to 2.1 nM.

The values above are taken from publication PMC8448983 (European journal of medicinal chemistry, 2021).
